Assay results from ChEMBL document CHEMBL1139531, “Synthesis and biological evaluation of dihydromotuporamine derivatives in cells containing active polyamine transporters” (J Med Chem, 2005).

Experiments:
CHO-MG [1] = assay: Relative inhibition of CHO-MG and chinese hamster ovary cell proliferation; assay type: functional
CHO-MG [2] = assay: Inhibition of MGBG-resistant CHO-MG cell proliferation, no polyamine transporter activity; assay type: functional, cell-based; details: Cricetulus griseus
CHO = assay: Inhibition of chinese hamster ovary cell proliferation, high polyamine transporter activity; assay type: functional, cell-based; details: Cricetulus griseus
L1210 [3] = assay: Inhibition of murine L1210 leukemia cell proliferation, high polyamine transporter activity; assay type: functional, cell-based; details: Mus musculus
L1210 [4] = assay: Affinity for cellular polyamine transporter system as inhibition [14C]spermidine uptake in L1210 cells; assay type: functional, cell-based, Mus musculus

SMILES	Ratio (CHO-MG [1])	IC50 (CHO-MG [2]) [µM]	IC50 (CHO) [µM]	IC50 (L1210 [3]) [µM]	Ki (L1210 [4]) [µM]
NCCCCNCCCCN1CCCCCCCCCCCCCC1	1	28.2	30	18.5	6.2
NCCCNCCCN1CCCCCCCCCCCCCC1	1	10	10.5	3	9.9
CCN(CCCCNCCCCN)Cc1c2ccccc2cc2ccccc12.Cl.Cl.Cl	1	21.9	22.2	22.2	24.4
Cl.Cl.Cl.NCCCNCCCNCc1c2ccccc2cc2ccccc12	1.8	3.4	1.9	1.8	33.4
Cl.Cl.Cl.NCCCCNCCCCNCc1c2ccccc2cc2ccccc12	148		0.45		
